# Reference: ChEMBL document CHEMBL4270512, “Harnessing pyrrolidine iminosugars into dimeric structures for the rapid discovery of divalent glycosidase inhibitors” (Eur J Med Chem, 2018)
# Active and inactive are the calls of the source. No cut-off for these calls is given here.
# Columns and labels:
# [1] = molecular target: T1, Alpha-mannosidase (Canavalia ensiformis) (UniProt C0HJB3); assay: Inhibition of jack beans alpha-mannosidase at 0.1 mM using p-nitrophenyl glycopyranoside as substrate preincubated for 5 mins followed by substrate addition and measured after 20 mins by visible absorption spectroscopic analysis
# T1 sequence (whole entry): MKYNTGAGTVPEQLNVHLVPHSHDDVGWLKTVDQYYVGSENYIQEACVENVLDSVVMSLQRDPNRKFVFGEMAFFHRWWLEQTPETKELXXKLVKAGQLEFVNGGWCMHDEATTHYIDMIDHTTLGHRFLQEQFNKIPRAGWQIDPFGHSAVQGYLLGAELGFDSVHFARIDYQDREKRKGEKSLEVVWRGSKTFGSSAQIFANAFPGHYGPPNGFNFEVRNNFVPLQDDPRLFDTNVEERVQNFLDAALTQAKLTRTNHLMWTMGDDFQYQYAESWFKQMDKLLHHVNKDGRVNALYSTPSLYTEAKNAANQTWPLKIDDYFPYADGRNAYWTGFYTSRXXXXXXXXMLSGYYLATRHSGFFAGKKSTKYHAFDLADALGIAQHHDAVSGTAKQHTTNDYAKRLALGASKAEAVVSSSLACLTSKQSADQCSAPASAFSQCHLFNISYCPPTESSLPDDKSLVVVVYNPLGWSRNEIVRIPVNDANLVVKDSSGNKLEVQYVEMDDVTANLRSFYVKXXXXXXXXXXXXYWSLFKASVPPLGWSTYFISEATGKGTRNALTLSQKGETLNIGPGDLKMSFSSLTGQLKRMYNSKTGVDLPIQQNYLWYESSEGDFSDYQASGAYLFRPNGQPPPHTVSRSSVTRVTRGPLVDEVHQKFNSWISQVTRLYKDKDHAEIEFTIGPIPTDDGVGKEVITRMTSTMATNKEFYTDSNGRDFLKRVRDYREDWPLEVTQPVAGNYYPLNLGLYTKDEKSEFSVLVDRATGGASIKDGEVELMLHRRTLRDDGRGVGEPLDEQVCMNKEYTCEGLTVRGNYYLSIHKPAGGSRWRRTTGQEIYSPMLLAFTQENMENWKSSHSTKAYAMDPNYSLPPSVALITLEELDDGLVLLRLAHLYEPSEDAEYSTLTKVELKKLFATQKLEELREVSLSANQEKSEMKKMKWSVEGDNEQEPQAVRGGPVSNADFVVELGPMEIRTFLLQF
# Aspergillus niger = assay: Inhibition of Aspergillus niger amyloglucosidase at 0.1 mM using p-nitrophenyl glycopyranoside as substrate preincubated for 5 mins followed by substrate addition and measured after 20 mins by visible absorption spectroscopic analysis
# Cornu aspersum = assay: Inhibition of snail beta-mannosidase at 0.1 mM using p-nitrophenyl glycopyranoside as substrate preincubated for 5 mins followed by substrate addition and measured after 20 mins by visible absorption spectroscopic analysis
# Beta-galactosidase [2] = molecular target: T2, Beta-galactosidase (Bos taurus, UniProt Q58D55); assay: Inhibition of bovine liver beta-galactosidase using p-nitrophenyl glycopyranoside as substrate preincubated for 5 mins followed by substrate addition and measured after 20 mins by visible absorption spectroscopic analysis
# T2 sequence (Q58D55 whole entry): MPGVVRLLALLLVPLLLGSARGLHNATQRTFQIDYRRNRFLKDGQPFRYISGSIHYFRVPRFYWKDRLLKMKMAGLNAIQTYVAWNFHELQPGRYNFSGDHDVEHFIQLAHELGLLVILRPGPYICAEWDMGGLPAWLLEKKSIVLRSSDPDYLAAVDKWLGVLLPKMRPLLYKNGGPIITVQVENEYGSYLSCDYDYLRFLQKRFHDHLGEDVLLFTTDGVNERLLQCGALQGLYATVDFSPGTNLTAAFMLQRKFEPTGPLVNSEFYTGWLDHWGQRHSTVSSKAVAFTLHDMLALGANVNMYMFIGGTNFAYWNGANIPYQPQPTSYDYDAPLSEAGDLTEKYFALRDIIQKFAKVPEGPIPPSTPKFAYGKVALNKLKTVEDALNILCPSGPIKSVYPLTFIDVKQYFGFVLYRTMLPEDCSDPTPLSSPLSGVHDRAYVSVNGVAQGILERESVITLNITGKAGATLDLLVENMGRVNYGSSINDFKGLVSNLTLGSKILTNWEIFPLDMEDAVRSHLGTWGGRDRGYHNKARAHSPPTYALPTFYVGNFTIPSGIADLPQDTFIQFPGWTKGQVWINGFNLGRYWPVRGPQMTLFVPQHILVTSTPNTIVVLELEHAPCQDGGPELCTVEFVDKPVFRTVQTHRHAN
# Canavalia ensiformis = assay: Inhibition of jack beans beta-N-acetylglucosaminidase at 0.1 mM using p-nitrophenyl glycopyranoside as substrate preincubated for 5 mins followed by substrate addition and measured after 20 mins by visible absorption spectroscopic analysis
# Beta-galactosidase [3] = molecular target: T2, Beta-galactosidase; assay: Competitive inhibition of bovine liver beta-galactosidase using p-nitrophenyl glycopyranoside as substrate preincubated for 5 mins followed by substrate addition and measured after 20 mins by Lineweaver-Burk plot analysis
# Homo sapiens = species on record: Homo sapiens; assay: Inhibition of human alpha-fucosidase at 0.1 mM using p-nitrophenyl glycopyranoside as substrate preincubated for 5 mins followed by substrate addition and measured after 20 mins by visible absorption spectroscopic analysis
# Prunus dulcis = assay: Inhibition of almond beta-glucosidase at 0.1 mM using p-nitrophenyl glycopyranoside as substrate preincubated for 5 mins followed by substrate addition and measured after 20 mins by visible absorption spectroscopic analysis
# Oryza sativa = assay: Inhibition of rice beta-glucosidase at 0.1 mM using p-nitrophenyl glycopyranoside as substrate preincubated for 5 mins followed by substrate addition and measured after 20 mins by visible absorption spectroscopic analysis
# Saccharomyces cerevisiae = assay: Inhibition of Saccharomyces cerevisiae alpha-glucosidase at 0.1 mM using p-nitrophenyl glycopyranoside as substrate preincubated for 5 mins followed by substrate addition and measured after 20 mins by visible absorption spectroscopic analysis
# [4] = Inhibition of bovine kidney alpha-fucosidase at 0.1 mM using p-nitrophenyl glycopyranoside as substrate preincubated for 5 mins followed by substrate addition and measured after 20 mins by visible absorption spectroscopic analysis relative to control; design: species or system Bos taurus
# [5] = molecular target: Alpha-galactosidase (Coffea arabica) (UniProt Q42656); assay: Inhibition of coffee beans alpha-galactosidase at 0.1 mM using p-nitrophenyl glycopyranoside as substrate preincubated for 5 mins followed by substrate addition and measured after 20 mins by visible absorption spectroscopic analysis
# Alpha-galactosidase (Coffea arabica), sequence (Q42656 16-378 limits assumed): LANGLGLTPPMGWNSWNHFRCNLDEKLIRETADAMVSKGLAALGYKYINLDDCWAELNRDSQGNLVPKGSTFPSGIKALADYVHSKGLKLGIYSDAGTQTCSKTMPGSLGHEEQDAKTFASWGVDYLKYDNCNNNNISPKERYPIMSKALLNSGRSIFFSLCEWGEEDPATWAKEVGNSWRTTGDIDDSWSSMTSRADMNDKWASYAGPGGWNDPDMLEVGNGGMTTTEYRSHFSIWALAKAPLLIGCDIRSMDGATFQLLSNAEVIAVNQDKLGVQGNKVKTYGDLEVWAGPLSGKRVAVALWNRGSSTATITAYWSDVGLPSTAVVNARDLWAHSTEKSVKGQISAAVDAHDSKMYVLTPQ
# [6] = Uncompetitive inhibition of bovine kidney alpha-fucosidase using p-nitrophenyl glycopyranoside as substrate preincubated for 5 mins followed by substrate addition and measured after 20 mins by Cornish-Bowden plot analysis; design: species or system Bos taurus
# Bos taurus [7] = species on record: Bos taurus; assay: Inhibition of bovine kidney alpha-fucosidase at 0.120 uM using p-nitrophenyl glycopyranoside as substrate preincubated for 5 mins followed by substrate addition and measured after 20 mins by visible absorption spectroscopic analysis
# [8] = Competitive inhibition of human alpha-fucosidase using p-nitrophenyl glycopyranoside as substrate preincubated for 5 mins followed by substrate addition and measured after 20 mins by Dixon plot analysis
# [9] = Uncompetitive inhibition of human alpha-fucosidase using p-nitrophenyl glycopyranoside as substrate preincubated for 5 mins followed by substrate addition and measured after 20 mins by Cornish-Bowden plot analysis
# [10] = molecular target: T3, Beta-galactosidase (Bos taurus) (UniProt Q58D55); assay: Inhibition of bovine liver beta-galactosidase at 0.1 mM using p-nitrophenyl glycopyranoside as substrate preincubated for 5 mins followed by substrate addition and measured after 20 mins by visible absorption spectroscopic analysis
# T3 sequence (whole entry): T2 sequence (Q58D55 whole entry)
# [11] = Competitive inhibition of bovine kidney alpha-fucosidase using p-nitrophenyl glycopyranoside as substrate preincubated for 5 mins followed by substrate addition and measured after 20 mins by Dixon plot analysis; design: species or system Bos taurus
# [12] = Inhibition of bovine kidney alpha-fucosidase using p-nitrophenyl glycopyranoside as substrate preincubated for 5 mins followed by substrate addition and measured after 20 mins by visible absorption spectroscopic analysis; design: species or system Bos taurus
# Bos taurus [13] = species on record: Bos taurus; assay: Inhibition of bovine kidney alpha-fucosidase at 5 uM using p-nitrophenyl glycopyranoside as substrate preincubated for 5 mins followed by substrate addition and measured after 20 mins by visible absorption spectroscopic analysis relative to control
# [14] = Inhibition of human alpha-fucosidase using p-nitrophenyl glycopyranoside as substrate preincubated for 5 mins followed by substrate addition and measured after 20 mins by visible absorption spectroscopic analysis
# Bos taurus [15] = species on record: Bos taurus; assay: Inhibition of bovine kidney alpha-fucosidase at 0.120 uM using p-nitrophenyl glycopyranoside as substrate preincubated for 5 mins followed by substrate addition and measured after 20 mins by visible absorption spectroscopic analysis relative to control
inhibition [1],inhibition (Aspergillus niger),inhibition (Cornu aspersum),inhibition (Canavalia ensiformis),inhibition (Prunus dulcis),inhibition (Oryza sativa),inhibition (Saccharomyces cerevisiae),inhibition [5],Compound,other results
inactive,inactive,inactive,inactive,inactive,inactive,inactive,inactive,CCCCCCn1cc(CNC(=O)c2cc([C@H]3NC[C@@H](O)[C@H]3O)oc2C)nn1,IC50 (Beta-galactosidase [2]): 94000 nM; Ki (Beta-galactosidase [3]): 58000 nM; inhibition (Homo sapiens): inactive; IC50 [4]: 37000 nM
inactive,inactive,inactive,inactive,inactive,inactive,inactive,inactive,C[C@@H]1N[C@@H](c2cn(-c3ccc(S(=O)(=O)c4ccc(-n5cc([C@@H]6N[C@@H](C)[C@@H](O)[C@H]6O)nn5)cc4)cc3)nn2)[C@H](O)[C@@H]1O,Ki [6]: 0.52 nM; inhibition (Bos taurus [7]): Active; Ki [8]: 60 nM; Ki [9]: 150 nM; inhibition [10]: inactive; Ki [11]: 0.15 nM; IC50 [12]: 0.48 nM; inhibition (Bos taurus [13]): 91%; IC50 [14]: 210 nM; inhibition (Bos taurus [15]): 96%
